This note sets out measurements from patent US7816353B2 (Exelixis, Inc., priority 2003, dated 2010).

As usually defined, the IC50 is the concentration that gives 50% inhibition.

Structures are written as SMILES. A value given as a limit tells only on which side of the number the result lay.

Experiment [1] concerns the target T1, Akt1 (Homo sapiens, UniProt P31749).
T1 construct: made in house
Description: Akt1 Kinase Assay (Luciferase-Coupled Chemiluminescent Kinase assay, LCCA). It counts as biochemical. The note with it: human Akt1 kinase domain residues R144-A480, activated with PDK1; 1 μM ATP; read-out: Akt-1 IC50. Here is the method:
Kinase activity and compound inhibition are investigated using one or more of the three assay formats described below. The ATP concentrations for each assay are selected to be close to the Michaelis-Menten constant (KM) for each individual kinase. Dose-response experiments are performed at 10 different inhibitor concentrations in a 384-well plate format. The data are fitted to four-parameter equation (2) below; where Y is the observed signal, X is the inhibitor concentration, Min is the background signal in the absence of enzyme (0% enzyme activity), Max is the signal in the absence of inhibitor (100% enzyme activity), IC50 is the inhibitor concentration at 50% enzyme inhibition and H represents the empirical Hill's slope to measure the cooperativity. Typically H is close to unity. Y=Min+(Max−Min)/(1+(X/IC50)^H) Equation (2) p70S6 Kinase Assay
Biochemical activity of Akt1 kinase was assessed using a Luciferase-Coupled Chemiluminescent Kinase assay (LCCA) format. Kinase activity was measured as the percent ATP remaining following the kinase reaction. Remaining ATP was detected by luciferase-luciferin-coupled chemiluminescence. Specifically, the reaction was initiated by mixing test compounds, 1 μM ATP, 5 μM crosstide peptide and 1.3 nM Akt1 (baculovirus expressed human Akt1 kinase domain residues R144-A480, activated with PDK1) in a 20 uL assay buffer (20 mM Tris-HCL pH 7.5, 10 mM MgCl2, 0.01% Triton X-100, 1 mM DTT, 3 mM MnCl2). The mixture is incubated at ambient temperature for 3 hours after which 20 μL luciferase-luciferin mix is added and the chemiluminescent signal read using a Wallac Victor2 reader. The luciferase-luciferin mix consists of 50 mM HEPES, pH 7.8, 8.5 μg/mL oxalic acid (pH 7.8), 5 (or 50) mM DTT, 0.4% Triton X-100, 0.25 mg/mL coenzyme A, 63 uM AMP, 28 μg/mL luciferin and 40,000 units/mL luciferase.

Experiment [2] has as its target T2, p70S6K (Homo sapiens, UniProt P23443, T412E).
T2 construct: human p70S6 kinase domain residues 1-421, containing a T412E mutation; made in house
Description: p70S6 Kinase Assay (Luciferase-Coupled Chemiluminescent Kinase assay, LCCA). It counts as biochemical. The settings on record: human p70S6 kinase domain residues 1-421, T412E; 5 μM ATP; read-out: p70S6K IC50. An outline of the steps:
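Luciferase-coupled chemiluminescence measured percent ATP remaining after the 2 h kinase reaction at ambient temperature, with ATP near the kinase's KM. Ten inhibitor concentrations were tested. IC50 was obtained from a Hill-equation fit.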

T2 sequence (P23443 1-421 T412E): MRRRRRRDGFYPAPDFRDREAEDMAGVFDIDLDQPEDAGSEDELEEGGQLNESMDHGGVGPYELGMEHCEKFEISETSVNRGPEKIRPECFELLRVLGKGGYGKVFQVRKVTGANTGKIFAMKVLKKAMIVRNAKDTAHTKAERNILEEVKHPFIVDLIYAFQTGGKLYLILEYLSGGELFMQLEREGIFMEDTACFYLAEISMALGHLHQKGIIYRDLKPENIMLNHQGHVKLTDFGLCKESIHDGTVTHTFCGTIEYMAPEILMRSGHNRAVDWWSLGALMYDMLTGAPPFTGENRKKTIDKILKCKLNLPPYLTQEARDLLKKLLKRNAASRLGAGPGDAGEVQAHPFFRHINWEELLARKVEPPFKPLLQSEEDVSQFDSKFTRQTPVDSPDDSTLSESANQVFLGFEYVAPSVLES
T1 sequence (P31749 144-480): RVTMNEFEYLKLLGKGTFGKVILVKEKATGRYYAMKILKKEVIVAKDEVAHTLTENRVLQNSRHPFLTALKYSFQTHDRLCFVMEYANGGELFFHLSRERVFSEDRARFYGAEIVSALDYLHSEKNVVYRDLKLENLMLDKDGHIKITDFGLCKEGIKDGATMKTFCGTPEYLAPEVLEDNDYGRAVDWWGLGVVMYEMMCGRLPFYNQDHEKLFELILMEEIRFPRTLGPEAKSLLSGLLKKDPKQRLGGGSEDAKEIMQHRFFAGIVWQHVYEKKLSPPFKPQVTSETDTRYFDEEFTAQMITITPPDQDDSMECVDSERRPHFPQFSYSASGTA

Consider `Nc1nc(Cl)c(C=O)c(SCC(=O)Nc2cccc(C(F)(F)F)c2)n1` [Example 43, 2-[(2-amino-6-chloro-5-formylpyrimidin-4-yl)thio]-N-[3-(trifluoromethyl)phenyl]acetamide], for which the half-maximal inhibitory concentration (IC50) in experiment [1] is greater than 2000 nM; in experiment [2], 50 to 500 nM.
The matching figures for `CSc1ncc(C#N)c(NCC(=O)Nc2cccc(C(F)(F)F)c2)n1` [Example 100, N^2-[5-cyano-2-(methylthio)pyrimidin-4-yl]-N-[3-(trifluoromethyl)phenyl]glycinamide]: greater than 2000 nM and greater than 2000 nM.
On the same counts, the results for `CSc1nc(N)nc(N(CC(=O)Nc2cccc(C(F)(F)F)c2)CC2CCOCC2)c1C#N` [Example 101, N^2-[2-amino-5-cyano-6-(methylthio)pyrimidin-4-yl]-N^2-(tetrahydro-2H-pyran-4-ylmethyl)-N-[3-(trifluoromethyl)phenyl]glycinamide] are greater than 2000 nM and greater than 2000 nM.
On the same counts, the results for `COC(=O)c1cc(NC(=O)[C@H](C)Nc2nc(N)nc(SC)c2C#N)cc(C(F)(F)F)c1` [Example 112, methyl 3-({N-[2-amino-5-cyano-6-(methylthio)pyrimidin-4-yl]-L-alanyl}amino)-5-(trifluoromethyl)benzoate] are greater than 2000 nM and greater than 2000 nM.
As to `CSc1nc(N)nc(N[C@@H](CCCNC(N)=O)C(=O)Nc2cccc(C(F)(F)F)c2)c1C#N` [Example 147, N~5~-(aminocarbonyl)-N~2~-[2-amino-5-cyano-6-(methylthio)pyrimidin-4-yl]-N-[3-(trifluoromethyl)phenyl]-L-omithinamide], the half-inhibitory concentration (IC50) in experiment [1] was greater than 2000 nM; in experiment [2] it was 500 to 2000 nM.
On to `CCOc1nc(N)nc(N[C@@H](CCCN)C(=O)Nc2cccc(C(F)(F)F)c2)c1C#N` [Example 148, N~2~-[2-amino-5-cyano-6-(ethyloxy)pyrimidin-4-yl]-N-[3-(trifluoromethyl)phenyl]-L-omithinamide], for which the values for the concentration for half-maximal inhibition (IC50) in experiment [1] and in experiment [2] were greater than 2000 nM and 500 to 2000 nM, respectively.
The matching figures for `CCOc1nc(N)nc(N[C@@H](C)C(=O)Nc2cc(C(=O)NCCN(C)C)cc(C(F)(F)F)c2)c1C#N` [Example 160, 3-({N-[2-amino-5-cyano-6-(ethyloxy)pyrimidin-4-yl]-L-alanyl}amino)-N-[2-(dimethylamino)ethyl]-5-(trifluoromethyl)benzamide]: greater than 2000 nM and greater than 2000 nM.
On the same counts, the results for `CCOc1nc(N)nc(N(C)[C@@H](C)C(=O)Nc2cccc(OC(F)(F)F)c2)c1C#N` [Example 172, N~2~-[2-amino-5-cyano-6-(ethyloxy)pyrimidin-4-yl]-N~2~-methyl-N-{3-[(trifluoromethyl)oxy]phenyl}-L-alaninamide] are greater than 2000 nM and greater than 2000 nM.
On the same counts, the results for `CCOc1nc(N)nc(N[C@@H](CCCNC(N)=O)C(=O)Nc2cccc(C(F)(F)F)c2)c1C#N` [Example 194] are greater than 2000 nM and greater than 2000 nM.
Consider `CSc1nc(N)nc(N[C@H](CCCCN)C(=O)Nc2cccc(C(F)(F)F)c2)c1C#N` [Example 195], for which the half-inhibitory concentration (IC50) in experiment [1] and in experiment [2] was greater than 2000 nM throughout.
Consider `CCOc1nc(N)nc(N[C@H](CCCCN)C(=O)Nc2cccc(C(F)(F)F)c2)c1C#N` [Example 196, N~2~-[2-amino-5-cyano-6-(ethyloxy)pyrimidin-4-yl]-N-[3-(trifluoromethyl)phenyl]-D-lysinamide], for which the IC50 in experiment [1] and in experiment [2] was greater than 2000 nM throughout.
